Patent publication EP0377642B1, “HERBICIDES FOR WEED CONTROL IN RICE” (E.I. DU PONT DE NEMOURS AND COMPANY, priority 1987, dated 1989)

How the values were obtained:
Assay type in all cases: in vivo
weeds = test: Greenhouse test of Compound 1 and Compound 2, herbicidal efficacy (Table 26); settings: rated 24 days after treatment; for % CONTROL OR INJURY AT: Alisma triviale; for % CONTROL OR INJURY AP: Alternanthera philoxeroides; for % CONTROL OR INJURY CD: Cyperus difformis; for % CONTROL OR INJURY SR: Sagittaria rigida
From the text: (§1) Methyl 2-[[[[(4-methoxy-6-methyl-1,3,5-triazin-2-yl)amino]carbonyl]amino]sulfonyl]benzoate (Compound 1) and mixtures thereof with other compounds were applied as a spray (using a hand sprayer) to rice (either transplanted or direct seeded) in several rice growing areas in Southeast Asia and in the U.S. Tables 1-28 contain the results of these tests and clearly exemplify the utility of this invention. The details of each application are included in the appropriate table. [drawing 2]

Marsilea crenata = test: Herbicidal efficacy alone and with 2,4-D in Malaysia, applied 30 days after seeding (Table 8); settings: 22 days after treatment
From the text: as §1

rice [1] = test: Late-post application in Beaumont, Texas, with 0.25% AG-98 (Table 9); settings: 70 days after seeding
From the text: as §1

Eclipta alba = test: as above; settings: 70 days after seeding
From the text: as §1

Aeschynomene indica = test: as above; settings: 70 days after seeding
From the text: as §1

Sesbania exaltata = test: as above; settings: 70 days after seeding
From the text: as §1

Commelina communis = test: as above; settings: 70 days after seeding
From the text: as §1

Annual sedge (?) = test: as above; settings: 70 days after seeding
From the text: as §1

Caperonia castaniifolia = test: as above; settings: 70 days after seeding
From the text: as §1

Echinochloa colonum = test: as above; settings: 70 days after seeding
From the text: as §1

rice [2] = test: Effects on rice growth in Thailand, phytotoxicity (Table 2); settings: scale 0-10
From the text: as §1

Sphenoclea zeylanica = test: Herbicidal efficacy with 2,4-D in Thailand (Table 17); settings: 4 GAI/HA; 14 days after treatment
From the text: as §1

rice [3] = test: as above; settings: 4 GAI/HA; 14 days after treatment
From the text: as §1

Cyperus difformis = test: as above; settings: 4 GAI/HA; 14 days after treatment
From the text: as §1

Ludwigia linifolia = test: as above; settings: 4 GAI/HA; 14 days after treatment
From the text: as §1

MC = test: as above; settings: 4 GAI/HA; 14 days after treatment
From the text: as §1

rice [4] = test: Greenhouse test of Compound 1 and Compound 2, crop tolerance (Table 26); settings: treated 12 days after transplanting, rated 24 days after treatment; for % CONTROL OR INJURY LEMONT: indica rice variety Lemont; for % CONTROL OR INJURY M101: japonica rice variety M101
From the text: as §1

CI = test: Herbicidal efficacy in relation to application timing in Indonesia (Table 5)
From the text: as §1

SMILES: COC(=O)c1ccccc1S(=O)(=O)NC(=O)Nc1nc(C)nc(OC)n1 [Compound 1, Methyl 2-[[[[(4-methoxy-6-methyl-1,3,5-triazin-2-yl)amino]carbonyl]amino]sulfonyl]benzoate]
- % CONTROL OR INJURY AT (weeds; rate 1 g ai/ha): 80%
- % CONTROL OR INJURY AT (weeds; rate 2 g ai/ha): 95%
- % CONTROL OR INJURY AT (weeds; rate 4 g ai/ha): 95%
- % CONTROL OR INJURY AT (weeds; rate 8 g ai/ha): 95%
- % CONTROL OR INJURY AP (weeds; rate 1 g ai/ha): 0%
- % CONTROL OR INJURY AP (weeds; rate 2 g ai/ha): 0%
- % CONTROL OR INJURY AP (weeds; rate 4 g ai/ha): 60%
- % CONTROL OR INJURY AP (weeds; rate 8 g ai/ha): 70%
- % CONTROL OR INJURY CD (weeds; rate 1 g ai/ha): 60%
- % CONTROL OR INJURY CD (weeds; rate 2 g ai/ha): 60%
- % CONTROL OR INJURY CD (weeds; rate 4 g ai/ha): 80%
- % CONTROL OR INJURY CD (weeds; rate 8 g ai/ha): 100%
- % CONTROL OR INJURY SR (weeds; rate 1 g ai/ha): 90%
- % CONTROL OR INJURY SR (weeds; rate 2 g ai/ha): 95%
- % CONTROL OR INJURY SR (weeds; rate 4 g ai/ha): 95%
- % CONTROL OR INJURY SR (weeds; rate 8 g ai/ha): 95%
- % CONTROL MC (Marsilea crenata; 1 GAI/HA): 20%
- % CONTROL MC (Marsilea crenata; 2 GAI/HA): 95%
- % CONTROL MC (Marsilea crenata; 3 GAI/HA): 100%
- % CONTROL MC (Marsilea crenata; 4 GAI/HA): 95%
- % CONTROL MC (Marsilea crenata; 5 GAI/HA): 100%
- % INJURY OR CONTROL RICE (rice [1]; 3 G/HA): 3%
- % INJURY OR CONTROL RICE (rice [1]; 6 G/HA): 5%
- % INJURY OR CONTROL RICE (rice [1]; 12 G/HA): 6%
- % INJURY OR CONTROL EA (Eclipta alba; 3 G/HA): 13%
- % INJURY OR CONTROL EA (Eclipta alba; 6 G/HA): 23%
- % INJURY OR CONTROL EA (Eclipta alba; 12 G/HA): 15%
- % INJURY OR CONTROL AI (Aeschynomene indica; 3 G/HA): 68%
- % INJURY OR CONTROL AI (Aeschynomene indica; 6 G/HA): 62%
- % INJURY OR CONTROL AI (Aeschynomene indica; 12 G/HA): 46%
- % INJURY OR CONTROL SE (Sesbania exaltata; 3 G/HA): 68%
- % INJURY OR CONTROL SE (Sesbania exaltata; 6 G/HA): 62%
- % INJURY OR CONTROL SE (Sesbania exaltata; 12 G/HA): 46%
- % INJURY OR CONTROL COM (Commelina communis; 3 G/HA): 13%
- % INJURY OR CONTROL COM (Commelina communis; 6 G/HA): 24%
- % INJURY OR CONTROL COM (Commelina communis; 12 G/HA): 23%
- % INJURY OR CONTROL SEDGE (Annual sedge (?); 3 G/HA): 43%
- % INJURY OR CONTROL SEDGE (Annual sedge (?); 6 G/HA): 56%
- % INJURY OR CONTROL SEDGE (Annual sedge (?); 12 G/HA): 56%
- % INJURY OR CONTROL CC (Caperonia castaniifolia; 3 G/HA): 11%
- % INJURY OR CONTROL CC (Caperonia castaniifolia; 6 G/HA): 19%
- % INJURY OR CONTROL CC (Caperonia castaniifolia; 12 G/HA): 18%
- % INJURY OR CONTROL EC (Echinochloa colonum; 3 G/HA): 26%
- % INJURY OR CONTROL EC (Echinochloa colonum; 6 G/HA): 30%
- % INJURY OR CONTROL EC (Echinochloa colonum; 12 G/HA): 24%
- PHYTOTOXICITY (rice [2]; applied 7 DAS, 3 GAI/HA): 1.67
- PHYTOTOXICITY (rice [2]; applied 7 DAS, 6 GAI/HA): 1.33
- PHYTOTOXICITY (rice [2]; applied 14 DAS, 3 GAI/HA): 1.0
- PHYTOTOXICITY (rice [2]; applied 14 DAS, 6 GAI/HA): 1.0
- PHYTOTOXICITY (rice [2]; applied 21 DAS, 3 GAI/HA): 0
- PHYTOTOXICITY (rice [2]; applied 21 DAS, 6 GAI/HA): 0
- PHYTOTOXICITY (rice [2]; applied 28 DAS, 3 GAI/HA): 0
- PHYTOTOXICITY (rice [2]; applied 28 DAS, 6 GAI/HA): 0
- % CONTROL OR INJURY SZ (Sphenoclea zeylanica): 100%
- % CONTROL OR INJURY RICE (rice [3]): 16.6%
- % CONTROL OR INJURY CD (Cyperus difformis): 100%
- % CONTROL OR INJURY LL (Ludwigia linifolia): 87%
- % CONTROL OR INJURY MC (MC): 100%
- % CONTROL OR INJURY LEMONT (rice [4]; rate 1 g ai/ha): 10%
- % CONTROL OR INJURY LEMONT (rice [4]; rate 2 g ai/ha): 20%
- % CONTROL OR INJURY LEMONT (rice [4]; rate 4 g ai/ha): 40%
- % CONTROL OR INJURY LEMONT (rice [4]; rate 8 g ai/ha): 50%
- % CONTROL OR INJURY M101 (rice [4]; rate 1 g ai/ha): 0%
- % CONTROL OR INJURY M101 (rice [4]; rate 2 g ai/ha): 10%
- % CONTROL OR INJURY M101 (rice [4]; rate 4 g ai/ha): 10%
- % CONTROL OR INJURY M101 (rice [4]; rate 8 g ai/ha): 35%
- % CONTROL CI (CI; 3 WAT, 2 GAI/HA, evaluation 1): 0%
- % CONTROL CI (CI; 3 WAT, 2 GAI/HA, evaluation 2): 0%
- % CONTROL CI (CI; 3 WAT, 2 GAI/HA, evaluation 3): 0%
- % CONTROL CI (CI; 3 WAT, 3 GAI/HA, evaluation 1): 20%
- % CONTROL CI (CI; 3 WAT, 3 GAI/HA, evaluation 2): 0%
- % CONTROL CI (CI; 3 WAT, 3 GAI/HA, evaluation 3): 0%
- % CONTROL CI (CI; 3 WAT, 4 GAI/HA, evaluation 1): 20%
- % CONTROL CI (CI; 3 WAT, 4 GAI/HA, evaluation 2): 0%
- % CONTROL CI (CI; 3 WAT, 4 GAI/HA, evaluation 3): 0%
- % CONTROL CI (CI; 3 WAT, 6 GAI/HA, evaluation 1): 20%
- % CONTROL CI (CI; 3 WAT, 6 GAI/HA, evaluation 2): 0%
- % CONTROL CI (CI; 3 WAT, 6 GAI/HA, evaluation 3): 0%
- % CONTROL CI (CI; 3 WAT, 8 GAI/HA, evaluation 1): 20%
- % CONTROL CI (CI; 3 WAT, 8 GAI/HA, evaluation 2): 0%
- % CONTROL CI (CI; 3 WAT, 8 GAI/HA, evaluation 3): 0%
- % CONTROL CI (CI; 4 WAT, 2 GAI/HA, evaluation 1): 0%
- % CONTROL CI (CI; 4 WAT, 2 GAI/HA, evaluation 2): 0%
- % CONTROL CI (CI; 4 WAT, 2 GAI/HA, evaluation 3): 0%
- % CONTROL CI (CI; 4 WAT, 3 GAI/HA, evaluation 1): 0%
- % CONTROL CI (CI; 4 WAT, 3 GAI/HA, evaluation 2): 0%
- % CONTROL CI (CI; 4 WAT, 3 GAI/HA, evaluation 3): 0%
- % CONTROL CI (CI; 4 WAT, 4 GAI/HA, evaluation 1): 20%
- % CONTROL CI (CI; 4 WAT, 4 GAI/HA, evaluation 2): 20%
- % CONTROL CI (CI; 4 WAT, 4 GAI/HA, evaluation 3): 0%
- % CONTROL CI (CI; 4 WAT, 6 GAI/HA, evaluation 1): 20%
- % CONTROL CI (CI; 4 WAT, 6 GAI/HA, evaluation 2): 20%
- % CONTROL CI (CI; 4 WAT, 6 GAI/HA, evaluation 3): 0%
- % CONTROL CI (CI; 4 WAT, 8 GAI/HA, evaluation 1): 20%
- % CONTROL CI (CI; 4 WAT, 8 GAI/HA, evaluation 2): 20%
- % CONTROL CI (CI; 4 WAT, 8 GAI/HA, evaluation 3): 0%
- % CONTROL CI (CI; 5 WAT, 2 GAI/HA, evaluation 1): 0%
- % CONTROL CI (CI; 5 WAT, 2 GAI/HA, evaluation 2): 0%
- % CONTROL CI (CI; 5 WAT, 2 GAI/HA, evaluation 3): 0%
- % CONTROL CI (CI; 5 WAT, 3 GAI/HA, evaluation 1): 50%
- % CONTROL CI (CI; 5 WAT, 3 GAI/HA, evaluation 2): 20%
- % CONTROL CI (CI; 5 WAT, 3 GAI/HA, evaluation 3): 0%
- % CONTROL CI (CI; 5 WAT, 4 GAI/HA, evaluation 1): 60%
- % CONTROL CI (CI; 5 WAT, 4 GAI/HA, evaluation 2): 30%
- % CONTROL CI (CI; 5 WAT, 4 GAI/HA, evaluation 3): 0%
- % CONTROL CI (CI; 5 WAT, 6 GAI/HA, evaluation 1): 60%
- % CONTROL CI (CI; 5 WAT, 6 GAI/HA, evaluation 2): 40%
- % CONTROL CI (CI; 5 WAT, 6 GAI/HA, evaluation 3): 0%
- % CONTROL CI (CI; 5 WAT, 8 GAI/HA, evaluation 1): 60%
- % CONTROL CI (CI; 5 WAT, 8 GAI/HA, evaluation 2): 60%
- % CONTROL CI (CI; 5 WAT, 8 GAI/HA, evaluation 3): 30%
